What was measured:
BACE1 [1] = target: T1, BACE1 (Homo sapiens, UniProt P56817); assay: Fluorometric BACE1 inhibition assay; format: biochemical; settings: three independent experiments; log dose inhibition curve; read-out: IC50 (mean ± SD) BACE1
T1 construct: purchased Invitrogen (Pan Vera, Madison, WI, USA)
Experimental: Fluorometric assays with a recombinant human BACE1 or TACE were conducted according to manufacturer instructions. […] The inhibition ratio was obtained using the following equation:Inhibition (%) = [1 − (S − S0)/(C − C0)] × 100 where C was the fluorescence of control (enzyme, assay buffer, and substrate) after 60 min of incubation, C0 was the fluorescence of control at time 0, S was the fluorescence of tested samples (enzyme, sample solution, and substrate) after 60 min of incubation, and S0 was the fluorescence of the tested samples at time 0.

[2] = target: T2, AChE from Electrophorus electricus (electric eel) (Electrophorus electricus, UniProt O42275); assay: Colorimetric AChE inhibition assay (DTNB); format: biochemical; settings: three independent experiments; log dose inhibition curve; read-out: IC50 (mean ± SD) AChE
T2 construct: purchased Sigma-Aldrich (St. Louis, MO, USA)
Experimental: The colorimetric assays, including AChE, trypsin, chymotrypsin, and elastase were assayed according to previously described methods [36]. […] All reactions were performed in 96-well plates in triplicate and recorded using a microplate spectrophotometer.

[3] = target: T3, human recombinant TACE (α-secretase) (Homo sapiens, UniProt P78536); assay: Fluorometric TACE inhibition assay; format: biochemical; settings: mean ± SD, read-out: Inhibitory activity TACE (α-Secretase); for inhibition at 50 µM: 50 μM compound; for inhibition at 100 µM: 100 μM compound
T3 construct: purchased R&D Systems (Minneapolis, MN, USA)
Experimental: (§1) Fluorometric assays with a recombinant human BACE1 or TACE were conducted according to manufacturer instructions. Briefly, reaction mixtures containing human recombinant BACE1 (1.0 U/mL), the substrate (75 μM in 50 mM ammonium bicarbonate), and phlorotannins dissolved in an assay buffer (50 mM sodium acetate, pH 4.5) were incubated in darkness for 60 min at 25 °C in well plates. The increase in fluorescence intensity produced by substrate hydrolysis was observed on a fluorescence microplate reader with excitation and emission wavelengths of 545 and 590 nm, respectively. The inhibition ratio was obtained using the following equation:Inhibition (%) = [1 − (S − S0)/(C − C0)] × 100 where C was the fluorescence of control (enzyme, assay buffer, and substrate) after 60 min of incubation, C0 was the fluorescence of control at time 0, S was the fluorescence of tested samples (enzyme, sample solution, and substrate) after 60 min of incubation, and S0 was the fluorescence of the tested samples at time 0.
A human recombinant TACE (0.1 ppm in 25 mM Tris buffer), the substrate (APP peptide […] using EDANS/DABCYL), and phlorotannins were dissolved in an assay buffer, which were then combined and incubated for 60 min in the dark at 25 °C. The increase in fluorescence intensity produced by substrate hydrolysis was observed on a fluorescence microplate reader with excitation and emission wavelengths of 320 and 405 nm, respectively.

trypsin = assay: Colorimetric trypsin inhibition assay; format: biochemical; settings: mean ± SD
Experimental: (§2) The colorimetric assays, including AChE, trypsin, chymotrypsin, and elastase were assayed according to previously described methods. The hydrolysis of AChE was monitored according to the formation of yellow 5-thio-2-nitrobenzoate anions at 405 nm for 15 min, which were produced by the reaction of DTNB with thiocholine released from ACh. All reactions were performed in 96-well plates in triplicate and recorded using a microplate spectrophotometer.
(§3) N-benzoyl-L-Arg-pNA, N-benzoyl-L-Tyr-pNA, and N-succinyl-Ala-Ala-Ala-pNA were used as substrates to assay the inhibition of trypsin, chymotrypsin, and elastase, respectively. Enzyme, Tris-HCl buffer (0.05 M, in 0.02 M CaCl2, pH 8.2), and phlorotannins were incubated for 10 min at 25 °C; then, substrate was added for 30 min at 37 °C. The absorbance was recorded at 410 nm. The inhibition ratio was obtained using the following equation:Inhibition (%) = {[1 − (A − B)]/control} × 100 where A was the absorbance of the control (enzyme, assay buffer, and substrate) after 60 min of incubation, and B was the absorbance of tested sample (assay buffer and sample solution) after 60 min of incubation.

chymotrypsin = target: T4, chymotrypsin (Bos taurus, UniProt P00766); assay: Colorimetric chymotrypsin inhibition assay; format: biochemical; settings: mean ± SD, read-out: Inhibitory activity Chymotrypsin; for inhibition at 50 µM: 50 μM compound; for inhibition at 100 µM: 100 μM compound
T4 construct: purchased Sigma-Aldrich (St. Louis, MO, USA)
Experimental: as §2, §3

elastase = target: T5, elastase (Sus scrofa, UniProt P00772); assay: Colorimetric elastase inhibition assay; format: biochemical; settings: mean ± SD, read-out: Inhibitory activity Elastase; for inhibition at 50 µM: 50 μM compound; for inhibition at 100 µM: 100 μM compound
T5 construct: purchased Sigma-Aldrich (St. Louis, MO, USA)
Experimental: as §2, §3

BACE1 [4] = target: T1, BACE1; assay: Enzyme kinetic study of BACE1 inhibition (Dixon and Lineweaver–Burk plots); format: biochemical; settings: for Ki: Dixon plot; for Inhibition Mode BACE1: Lineweaver–Burk plot
Experimental: as §1
(§4) To evaluate the kinetic mechanisms of phlorotannins towards BACE1 and AChE, Dixon and Lineweaver–Burk plots were conducted by various concentrations of substrate and inhibitors. Kinetic parameters such as Ki, Vmax, and Km values were calculated by Sigma Plot 12.3 (Systat Software, Inc., San Jose, CA, USA)

AChE = target: T6, AChE (Electrophorus electricus, UniProt O42275); assay: Enzyme kinetic study of AChE inhibition (Dixon and Lineweaver–Burk plots); format: biochemical, Electrophorus electricus (electric eel); settings: for Ki: Dixon plot; for Inhibition Mode AChE: Lineweaver–Burk plot
T6 construct: purchased Sigma-Aldrich (St. Louis, MO, USA)
Experimental: as §2, §4

hyaluronidase = settings: previous study; read-out: IC50 against hyaluronidase; cited from earlier work
[5] = system: HIV-reverse transcriptase; settings: compared with 8,4′′′-dieckol (diphenyl ether linkage); cited from earlier work
[6] = cited from earlier work
[7] = system: murine hippocampus neuronal cells; settings: cited from earlier work
BACE1 [8] = settings: phlorotannins from Eisenia bicyclis; cited from earlier work
[9] = system: ethanol-induced memory impairment mice; settings: oral administration, 10 mg/kg; cited from earlier work
[10] = cited from earlier work; remark: listed apart in the source

T6 sequence (O42275 24-633): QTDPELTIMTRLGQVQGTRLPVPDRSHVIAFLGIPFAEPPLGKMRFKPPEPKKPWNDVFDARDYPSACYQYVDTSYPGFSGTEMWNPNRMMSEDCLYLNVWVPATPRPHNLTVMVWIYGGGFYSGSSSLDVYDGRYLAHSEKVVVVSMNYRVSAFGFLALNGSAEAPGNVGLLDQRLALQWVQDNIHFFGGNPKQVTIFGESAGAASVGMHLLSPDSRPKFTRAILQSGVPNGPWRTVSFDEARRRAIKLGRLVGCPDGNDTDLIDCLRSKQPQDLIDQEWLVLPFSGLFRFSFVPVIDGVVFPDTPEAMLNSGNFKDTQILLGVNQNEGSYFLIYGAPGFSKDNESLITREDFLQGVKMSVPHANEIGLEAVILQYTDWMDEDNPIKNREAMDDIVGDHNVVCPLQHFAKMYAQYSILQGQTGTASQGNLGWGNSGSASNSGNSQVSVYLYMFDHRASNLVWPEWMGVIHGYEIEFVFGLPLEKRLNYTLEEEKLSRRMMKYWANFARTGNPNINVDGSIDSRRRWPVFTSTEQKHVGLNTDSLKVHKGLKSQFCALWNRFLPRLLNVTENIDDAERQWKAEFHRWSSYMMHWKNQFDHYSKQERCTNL
T2 sequence (O42275 24-633): as above
T5 sequence (P00772 27-266): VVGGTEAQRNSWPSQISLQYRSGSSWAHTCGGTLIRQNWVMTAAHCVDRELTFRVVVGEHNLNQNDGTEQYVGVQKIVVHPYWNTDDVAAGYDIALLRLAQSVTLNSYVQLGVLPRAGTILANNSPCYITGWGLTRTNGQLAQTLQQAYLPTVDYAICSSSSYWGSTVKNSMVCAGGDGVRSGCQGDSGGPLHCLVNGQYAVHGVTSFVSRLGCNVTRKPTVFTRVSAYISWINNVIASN
T3 sequence (P78536 215-824): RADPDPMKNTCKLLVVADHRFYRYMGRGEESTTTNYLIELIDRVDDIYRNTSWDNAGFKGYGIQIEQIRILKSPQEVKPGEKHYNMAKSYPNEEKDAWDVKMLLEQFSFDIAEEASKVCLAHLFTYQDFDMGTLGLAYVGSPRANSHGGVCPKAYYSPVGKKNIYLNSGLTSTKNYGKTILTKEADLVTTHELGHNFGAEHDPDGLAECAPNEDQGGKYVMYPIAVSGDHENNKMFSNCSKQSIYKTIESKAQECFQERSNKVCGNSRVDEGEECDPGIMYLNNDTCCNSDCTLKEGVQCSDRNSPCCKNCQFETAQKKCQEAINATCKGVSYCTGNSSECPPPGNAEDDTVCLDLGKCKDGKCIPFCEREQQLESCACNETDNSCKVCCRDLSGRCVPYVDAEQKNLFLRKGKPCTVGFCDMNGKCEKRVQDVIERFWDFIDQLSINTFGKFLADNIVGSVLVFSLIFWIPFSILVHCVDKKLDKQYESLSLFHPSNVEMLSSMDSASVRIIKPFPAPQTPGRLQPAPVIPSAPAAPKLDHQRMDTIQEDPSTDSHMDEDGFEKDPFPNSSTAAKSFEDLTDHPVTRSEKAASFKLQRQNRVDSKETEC
T1 sequence (P56817 46-501): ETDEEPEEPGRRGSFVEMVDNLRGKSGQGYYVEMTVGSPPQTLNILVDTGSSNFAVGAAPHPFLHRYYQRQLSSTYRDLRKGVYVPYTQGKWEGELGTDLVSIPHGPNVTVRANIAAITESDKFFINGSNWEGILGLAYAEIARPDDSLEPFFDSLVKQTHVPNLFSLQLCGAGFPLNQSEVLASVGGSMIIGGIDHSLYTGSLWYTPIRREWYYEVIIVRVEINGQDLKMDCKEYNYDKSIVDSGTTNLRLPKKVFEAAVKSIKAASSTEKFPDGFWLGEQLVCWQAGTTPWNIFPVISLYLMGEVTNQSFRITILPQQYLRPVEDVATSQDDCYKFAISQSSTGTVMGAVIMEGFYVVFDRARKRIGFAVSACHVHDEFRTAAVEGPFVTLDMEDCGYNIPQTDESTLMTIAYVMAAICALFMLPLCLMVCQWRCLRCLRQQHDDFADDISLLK

Row | SMILES | IC50 (BACE1 [1]) [nM] | IC50 [2] [µM] | inhibition at 50 µM [3] [%] | inhibition at 100 µM [3] [%] | Inhibitory activity Trypsin (trypsin; 50 μM compound) [%] | Inhibitory activity Trypsin (trypsin; 100 μM compound) [%] | inhibition at 50 µM (chymotrypsin) [%] | inhibition at 100 µM (chymotrypsin) [%] | inhibition at 50 µM (elastase) [%] | inhibition at 100 µM (elastase) [%] | Ki (BACE1 [4]) [µM] | Inhibition Mode BACE1 (BACE1 [4]) | Ki (AChE) [µM] | Inhibition Mode AChE (AChE) | IC50 (hyaluronidase) [µM] | Lipinski's requirements for acceptable oral bioavailability [6] | H2O2-induced oxidative stress [7] | also measured
1 | Oc1cc(O)cc(Oc2c(O)cc(O)c3c2Oc2c(cc(O)c(-c4c(O)cc5c(c4O)Oc4c(Oc6cc(O)cc(O)c6)c(O)cc(O)c4O5)c2O)O3)c1 [8,8′-Bieckol, 9-(3,5-dihydroxyphenoxy)-2-[9-(3,5-dihydroxyphenoxy)-1,3,6,8-tetrahydroxydibenzo-p-dioxin-2-yl]dibenzo-p-dioxin-1,3,6,8-tetrol] | 1620 ± 140 | 4.59 ± 0.32 | 11.1 ± 0.53 | 3.57 ± 0.05 | 2.98 ± 0.26 | −23.05 ± 0.32 | 0.86 ± 0.02 | 0.33 ± 0.01 | 5.26 ± 0.43 | 7.52 ± 0.24 | 13.9 | Non-competitive | 11.4 | Competitive | 40 | have limitations on bioavailability |  | Inhibitory effect on HIV-reverse transcriptase relative to 8,4′′′-dieckol [5]: tenfold higher
2 | Oc1cc(O)cc(Oc2c(O)cc(O)c3c2Oc2c(O)cc(O)cc2O3)c1 [Eckol, 4-(3,5-dihydroxyphenoxy)dibenzo-p-dioxin-1,3,6,8-tetrol] | 7670 ± 710 | 10 ± 0.94 | 19.3 ± 1.52 | 10.6 ± 0.53 | 3.59 ± 0.57 | 4.73 ± 0.25 | 1.48 ± 0.19 | 2.65 ± 0.06 | 6.06 ± 0.13 | 4.37 ± 0.27 | 31.2 | Non-competitive | 37.3 | Competitive | > 800 | meets Lipinski′s requirements for acceptable oral bioavailability | suppressed H2O2-induced oxidative stress | 
3 | Oc1cc(O)cc(Oc2c(O)cc(O)c3c2Oc2c(O)cc(Oc4c(O)cc(Oc5c(O)cc(O)c6c5Oc5c(O)cc(O)cc5O6)cc4O)cc2O3)c1 [Dieckol, 4-[4-[6-(3,5-dihydroxyphenoxy)-4,7,9-trihydroxydibenzo-p-dioxin-2-yl]oxy-3,5-dihydroxyphenoxy]dibenzo-p-dioxin-1,3,6,8-tetrol] | 2340 ± 100 | 5.69 ± 0.42 | 16.9 ± 1.01 | 18.3 ± 0.41 | 6.44 ± 0.76 | −16.64 ± 1.40 | 4.39 ± 0.44 | 1.43 ± 0.02 | 6.7 ± 0.85 | 6.2 ± 0.14 | 20.1 | Non-competitive | 12.3 | Competitive | 120 | have limitations on bioavailability | suppressed H2O2-induced oxidative stress | BACE1 inhibitory effect, relative (BACE1 [8]): stronger than eckol; Cognitive ability [9]: improved cognitive ability; Penetration into the brain across the blood–brain barrier [10]: successfully penetrated into the brain via crossing the blood–brain barrier

Source: paper PMC6410325, “Dual BACE1 and Cholinesterase Inhibitory Effects of Phlorotannins from Ecklonia cava—An In Vitro and in Silico Study” (Marine Drugs, 2019)
